# Experimental data taken from US20250179057A1, “MEK IMMUNE ONCOLOGY INHIBITORS AND THERAPEUTIC USES THEREOF” (Immuneering Corporation, priority 2022, published 2025).
# Like-named read-outs stand apart in the source and are kept apart here.
# How the values were obtained:
# [1] = Liver microsome stability (% remaining at 1 hour), beagle dog; type: in vitro ADME; details: 2 μM
# Method: (§1) Materials and Methods: Individual stock solutions of Test Articles (TA) were prepared at 30 mM in DMSO and were further diluted to 2 mM in DMSO. […] Prior to use in the assay, the 2 mM stock solutions were diluted 10-fold with acetonitrile. The acetonitrile diluted stocks were diluted 1:50 into warm (37° C.) 0.1 M potassium phosphate, pH 7.4, containing 2.0 mM NADPH (2× final assay concentration). Frozen liver microsomes were quick thawed in a 37° C. water bath and then placed on ice. […] The plate was incubated with gentle shaking at 37° C. Duplicate 30 μL aliquots were removed immediately after compound addition (To: time zero) and at 60 minutes. […] The quenched samples were gently mixed and were stored in a −20° C. freezer for at least 30 minutes. […]
# (§2) Data Collection and Calculations: Analyst (AB Sciex) and Acquity (Waters) were used for data acquisition. Results were calculated using Microsoft Excel.
# (§3) Peak area ratios for IS-normalized test article counts were used to calculate the percent remaining relative to the time zero (T0) value. As appropriate, results were plotted and further analyzed to calculate half-life (T1/2) and CLint values. […]
# (§4) Results were plotted [ln (% remaining) vs. incubation time] and further analyzed to calculate half-life (T1/2) values: […]
# [2] = Liver microsome stability (% remaining at 1 hour), human; type: in vitro ADME; details: 2 μM
# Method: as §1, §2, §3, §4
# [3] = Plasma stability, mouse plasma (Balb/c; Table 5 head CD-1 Mouse); type: in vitro ADME; details: 2 μM
# [4] = test system: Caco-2 cells
# [5] = Liver microsome stability (% remaining at 1 hour), CD-1 mouse; type: in vitro ADME; details: 2 μM
# Method: as §1, §2, §3, §4
# [6] = test system: phospho-ERK in SK-MEL-30 cells; assay: pERK/tERK ratio in SK-MEL-30 melanoma model; type: cell-based; details: SK-MEL-30 (NRAS p.Q61K); 100 nM
# Method: (§5) Compound (drug) treatment: Cells were plated in a 6-well plate at a density of 250,000-300,000 cells/well in 3 mL media and incubated 37° C. in a humidified, 5% CO2 incubator. […] These solutions were added to the cells (3 uL/well), mixed by swirling the plate, and incubated at 37° C. in a humidified, 5% CO2 incubator for 2 hours.
# (§6) Cell lysis and protein estimation: Cells were washed with PBS, and scraped in 50 μL of lysis buffer containing protease and phosphatase inhibitors. Cell lysates were stored at −20° C. Cell lysates were thawed and spun at 12,000 rpm for one minute, 3 ul of the supernatant was added to 500 μL of Coomassie blue reagent following by 500 μL of water. […] Protein standards were used (0-20 mg/mL) to calculate protein concentrations of test samples.
# (§7) All samples were heated at 95° C. for 5 minutes, cooled to room temperature and spun down. […] After the run, gel was removed and protein transfer was done using iBlot for 7 minutes, as per manufacturer's recommendations. After the transfer, nitrocellulose membrane was incubated on a shaker in 5 mL of blocking buffer at room temperature for 1 hr. The blot was then incubated overnight on a shaker in 5 ml of blocking buffer containing 0.2% Tween-20 and primary antibody, at room temperature. Anti-phospho-STAT3 antibody was used at a dilution of 1:500, the other 3 primary antibodies were used at a dilution of 1:1000.
# (§8) Next day, the blot was washed 3 times for 10 min each with 10 mL of TBST followed by incubation on a shaker in 5 ml of blocking buffer containing 0.2% Tween-20 and 0.5 ul of the IRDye labeled secondary antibodies, diluted 1:10000, at room temperature for 1 hr. The blot was then washed 3 times for 10 min each with 10 mL of TBST and dried between sheets of paper towels. Imaging was done using LICOR's Odyssey imaging system, quantitation was done using their software, Image Studio version 3.1.
# (§9) The nine models are described in Table 16.
# [7] = test system: phospho-ERK in MEL-JUSO cells; assay: pERK/tERK ratio in MEL-JUSO melanoma model; type: cell-based; details: MEL-JUSO (HRAS p.G13D, NRAS p.Q61L); 100 nM
# Method: as §5, §6, §7, §8, §9
# [8] = test system: phospho-MEK in Hs852.T cells; assay: pMEK/tMEK ratio in Hs852.T melanoma model; type: cell-based; details: Hs852.T (NRAS p.G12V); 100 nM
# Method: as §5, §6, §7, §8, §9
# [9] = test system: phospho-MEK in A375 cells; assay: pMEK/tMEK ratio in A375 melanoma model; type: cell-based; details: A375 (BRAF p.V600E); 100 nM
# Method: as §5, §6, §7, §8, §9
# [10] = test system: phospho-ERK in MM127 cells; assay: pERK/tERK ratio in MM127 melanoma model; type: cell-based; details: MM127 (NRAS p.G13R, BRAF p.G464E); 100 nM
# Method: as §5, §6, §7, §8, §9
# [11] = test system: phospho-ERK in SK-MEL-2 cells; assay: pERK/tERK ratio in SK-MEL-2 melanoma model; type: cell-based; details: SK-MEL-2 (NRAS p.Q61R); 100 nM
# Method: as §5, §6, §7, §8, §9
# [12] = test system: phospho-ERK in MeWo cells; assay: pERK/tERK ratio in MeWo melanoma model; type: cell-based; details: MeWo (NF1 LoF); 100 nM
# Method: as §5, §6, §7, §8, §9
# [13] = test system: phospho-MEK in MM415 cells; assay: pMEK/tMEK ratio in MM415 melanoma model; type: cell-based
# Method: as §5, §6, §7, §8, §9
# [14] = test system: phospho-ERK in MM415 cells; assay: pERK/tERK ratio in MM415 melanoma model; type: cell-based; details: MM415 (NRAS p.Q61L); 100 nM
# Method: as §5, §6, §7, §8, §9
# [15] = test system: phospho-MEK in MM127 cells; assay: pMEK/tMEK ratio in MM127 melanoma model; type: cell-based; details: MM127 (NRAS p.G13R, BRAF p.G464E); 100 nM
# Method: as §5, §6, §7, §8, §9
# [16] = test system: phospho-MEK in SK-MEL-28 cells; assay: pMEK/tMEK ratio in SK-MEL-28 melanoma model; type: cell-based; details: SK-MEL-28 (BRAF p.V600E); 100 nM
# Method: as §5, §6, §7, §8, §9
# [17] = test system: phospho-ERK in Hs852.T cells; assay: pERK/tERK ratio in Hs852.T melanoma model; type: cell-based; details: Hs852.T (NRAS p.G12V); 100 nM
# Method: as §5, §6, §7, §8, §9
# [18] = test system: phospho-ERK in SK-MEL-28 cells; assay: pERK/tERK ratio in SK-MEL-28 melanoma model; type: cell-based; details: SK-MEL-28 (BRAF p.V600E); 100 nM
# Method: as §5, §6, §7, §8, §9
SMILES,A-B Permeability Ranking [4],pERK/tERK ratio normalized to DMSO [6],pERK/tERK ratio normalized to DMSO [7],pMEK/tMEK ratio normalized to DMSO [8],pMEK/tMEK ratio normalized to DMSO [9],pERK/tERK ratio normalized to DMSO [10],pERK/tERK ratio normalized to DMSO [11],pERK/tERK ratio normalized to DMSO [12],pERK/tERK ratio normalized to DMSO [14],pMEK/tMEK ratio normalized to DMSO [15],pMEK/tMEK ratio normalized to DMSO [16],pERK/tERK ratio normalized to DMSO [17],pERK/tERK ratio normalized to DMSO [18],further results
"CNS(=O)(=O)Nc1nccc(Cc2c(C)c3ccc(Oc4ncccn4)cc3oc2=O)c1F [Reference-2, reference compound]",High,,,,,,,,,,,,,"Beagle Dog (% Reamining @1 hour) ([1]; beagle, dog, 1 h, pH 7.4): 111.6%; Human (% Reamining @1 hour) ([2]; human, 1 h, pH 7.4): 107.1%; CD-1 Mouse (% Reamining @2 hour) ([3]; plasma, 2 hour): 92.9%; CD-1 Mouse (% Reamining @1 hour) ([5]; CD-1, mouse, 1 h, pH 7.4): 96.0%"
"CNS(=O)(=O)Nc1cccc(Cc2c(CN(C)C)c3ccc(OC(=O)N(C)C)cc3oc2=O)c1Cl [Compound 274, 3-(2-chloro-3-((N-methylsulfamoyl)amino)benzyl)-4-((dimethylamino)methyl)-2-oxo-2H-chromen-7-yl dimethylcarbamate]",,0.521,0.631,0.672,0.585,0.533,0.439,0.519,0.423,0.773,0.763,0.731,0.745,"pMEK/tMEK ratio normalized to DMSO ([13]; MM415 (NRAS p.Q61L), 100 nM): 0.58"
"Cn1cnc2c(F)c(Nc3ccc(Br)cc3Cl)c(C(=O)NOCCO)cc21 [Reference-1, Selumetinib]",High,0.163,0.179,4.945,0.962,0.255,0.191,0.196,0.114,2.341,0.984,0.293,0.152,"Beagle Dog (% Reamining @1 hour) ([1]; liver microsomes, 1 hour): 97.5%; Human (% Reamining @1 hour) ([2]; liver microsomes, 1 hour): 75.8%; pMEK/tMEK ratio normalized to DMSO [13]: 2.386; CD-1 Mouse (% Reamining @2 hour) ([3]; CD-1, mouse, 2 h, pH 7.4): 104.8%; CD-1 Mouse (% Reamining @1 hour) ([5]; liver microsomes, 1 hour): 13.9%"
